One data set concerns HepG2 cells. Put plainly: Protection of hepatocytes from deoxycholic acid (DCA)-induced cell damage, CCK8 viability. The data set is classed as cell-based. As to conditions: then 1 mM DCA 4 h; for cell viability: compound N 50 μM for 24 h, vs. DCA-treated group. How it is done: (§1) First, 2.5×10^4 HepG2 cells were seeded in a 96-well flat-bottom plate with an MEM medium containing 10% fetal bovine serum. The cells were cultured overnight in an incubator at 37° C. with 5% CO2 for adhesion. Subsequently, various compounds at corresponding concentrations (compound Y: 100 μM; compound B: 100 μM; compound N: 50 μM) were incubated with the HepG2 cells in the incubator at 37° C. with 5% CO2 for 24 h. All groups, except for the blank control group, were treated with 1 mM deoxycholic acid (DCA, a secondary bile acid that can directly induce hepatocyte damage) for 4 h. All groups were supplemented with 10 μL of CCK8 reagent and incubated under the incubator conditions for 1 h. The absorbance was measured at a wavelength of 450 nm using a microplate reader, which indirectly reflected the number of viable cells. All data were calculated and presented as percentages relative to the absorbance measured in the blank control group not treated with deoxycholic acid.
as §1, with “Y: 50” for “Y: 100 μM; compound B: 100”, “N: 50 µM; compound combination Y+N: 50 μM+50 μM (molar ratio: 1:1); YN salt:” for “N:”, “h. Then, the” for “h. The”
as §1, with “µM;” for “μM; compound B: 100 μM;”, “µM; compound combination Y+N: 100 μM+50 μM (molar ratio: 2:1))” for “μM)”
First, 2.5×10^4 HepG2 cells were seeded in a 96-well flat-bottom plate with an MEM medium containing 10% fetal bovine serum. The cells were cultured overnight in an incubator at 37° C. with 5% CO2 for adhesion. […] The absorbance was measured at a wavelength of 450 nm using a microplate reader, which indirectly reflected the number of viable cells. […]

Data set [1] relates to mice subjected to intragastric administration of α-naphthylisothiocyanate (ANIT). Put plainly: ANIT mouse model, serological indicators. The format is in vivo, C57BL/6 mice. As to conditions: vs. ANIT model group. The source says:
In order to verify the technical effects observed in the in vitro cell models, this experiment further examined the effects of compound Y and compound B on serological indicators in a mouse model subjected to intragastric administration of α-naphthylisothiocyanate (ANIT). Fifty-four female C57BL/6 mice aged 6-8 weeks were purchased from Shanghai Lingchang Biotechnology Co., Ltd. After one week of acclimatization, the mice were divided into 6 groups according to body weight, and this time point was designated as day −3. The test compound in each group was intragastrically administered starting from day −3. After three consecutive days of administration, modeling was performed by intragastric administration of ANIT at a dose of 50 mg/kg, and this time point was designated as day 0. During modeling, the healthy group (control) received a single oral dose of pure olive oil. Throughout the entire experimental period, both the healthy group (control) and the model group (ANIT) were given corresponding doses of vehicle (sodium carboxymethylcellulose) according to body weight. The mice were observed daily for health status and body weight changes. The experimental endpoint was day 2; prior to euthanasia, the mice were fasted for 6 h, and cardiac blood collection and liver sample acquisition were performed under anesthesia. The primary indicators were serological changes including AST, ALT, and ALP.
In order to verify the technical effects observed in the DDC model, this experiment further examined the effects of various compound combinations on serological indicators in a mouse model subjected to intragastric administration of α-naphthylisothiocyanate (ANIT). Fifty-six female C57BL/6 mice aged 6-8 weeks were purchased from Shanghai Lingchang Biotechnology Co., Ltd. After one week of acclimatization, the mice were divided into 7 groups according to body weight, and this time point was designated as day −3. The compound in each group was intragastrically administered starting from day −3. After three consecutive days of administration, modeling was performed by intragastric administration of ANIT at a dose of 50 mg/kg, and this time point was designated as day 0. The normal control group received a single oral dose of pure olive oil. Throughout the entire experimental period, both the healthy group (control) and the model group (ANIT) were given corresponding doses of vehicle (sodium carboxymethylcellulose) according to body weight. The mice were observed daily for health status and body weight changes. The experimental endpoint was day 2; prior to euthanasia, the mice were fasted for 6 h, and cardiac blood collection and liver sample acquisition were performed under anesthesia. The primary indicators were serological changes including AST, ALT, and ALP.

The next data set relates to CD8-positive T cells. The experiment in a line: Proliferation of CD8-positive T cells from Anti-CD3/CD28-stimulated PBMCs (CellTrace, flow cytometry). The format is cell-based, human. As to conditions: FIG. 6; compound Y 200 μM, Y+N 200 μM+100 μM, 72 h; vs. DMSO control. How it is done:
(§2) First, a certain amount of human peripheral blood mononuclear cells (PBMCs) were incubated with 5 μM CellTrace cell proliferation assay reagent in an incubator at 37° C. with 5% CO2 in the dark for 20 min. Then, 1.5×10^5 CellTrace-stained PBMCs were seeded in a 96-well U-bottom plate and treated with Anti-CD3/CD28 antibody-coupled magnetic beads at a ratio of 1:1 (cell count:magnetic bead count) to induce differentiation into T cells. Subsequently, various compounds at corresponding concentrations (compound Y: 200 µM; compound N: 100 µM; compound combination Y+N: 200 μM+100 μM; control group: UDCA (100 μM)) were co-incubated with the above-treated cells in the incubator at 37° C. with 5% CO2 for 72 h, followed by analysis by a flow cytometer. Specifically, the test cells were first treated with a Live/dead dye (633 nm, 1:1000 dilution) at 4° C. for 30 min to distinguish dead cells from live cells. Subsequently, the above test cells were simultaneously co-incubated with wavelength dyes anti-CD45-PerCPCy5.5, anti-CD4-AF700, and anti-CD8-FITC at room temperature for 30 min to distinguish different series of T cells (CD4-positive T cells and CD8-positive T cells). After appropriate washing, the above-stained cells were analyzed by a flow cytometer at different wavelengths. […] Proliferation of CD4-positive and CD8-positive T cells was determined by the fluorescence of CellTrace dye.
In general terms: A flow cytometer gives signals particle by particle.

In another data set the test system is CD4-positive T cells. Put plainly: Proliferation of CD4-positive T cells from Anti-CD3/CD28-stimulated PBMCs (CellTrace, flow cytometry). The format is cell-based, human. As to conditions: FIG. 5; compound Y 200 μM, Y+N 200 μM+100 μM, 72 h; vs. DMSO control. On the procedure: as §2
Data set [2] has as its system mice fed with feed containing 0.1% DDC (DDC model). Put plainly: DDC model, serological indicators and liver pathology. The format is in vivo, C57BL/6 mice. As to conditions: Example 12, FIG. 17; U 100 mg/kg, combinations 100+100 mg/kg; vs. DDC model group. The text has this: Seventy-one male C57BL/6 mice aged 10 weeks were purchased from Shanghai Lingchang Biotechnology Co., Ltd. […] The compound in each group was intragastrically administered starting from day 0. Throughout the entire experimental period, both the healthy group (control) and the model group (DDC) were given corresponding doses of vehicle (sodium carboxymethylcellulose) according to body weight. The mice were observed daily for health status and body weight changes. The experimental endpoint was day 20. Prior to euthanasia, the mice were fasted for 6 h, and cardiac blood collection and liver sample acquisition were performed under anesthesia. The primary indicators were serological changes including AST, ALT, and ALP; pathological analysis was performed by HE staining. The specific grouping and the administration dose for each group are shown in the table below: Fifty-six male C57BL/6 mice aged 10 weeks were purchased from Shanghai Lingchang Biotechnology Co., Ltd. […] The compound in each group was intragastrically administered starting from day 0. Throughout the entire experimental period, both the healthy group (control) and the model group (DDC) were given corresponding doses of vehicle (sodium carboxymethylcellulose) according to body weight. The mice were observed daily for health status and body weight changes. The experimental endpoint was day 20. […]

[3] abbreviates: Example 4, FIG. 1, compound Y 100 μM, compound B 100 μM.
The mark [4] stands for this setting: Example 9, FIG. 9, 100 and 50 mg/kg intragastric twice daily.

Where a name gives a salt, the structure may show the parent alone.

With `COc1ccc2cc3[n+](cc2c1OC)CCc1cc2c(cc1-3)OCO2` [Compound B, Berberine hydrochloride], the cell viability entry with HepG2 cells (setting [3]) is “highly significant increase in cell viability”. In addition, the “serum alkaline phosphatase (ALP) levels” value in data set [1] (Example 9, FIG. 7, 100 and 50 mg/kg intragastric twice daily) is listed as “increased serum ALP levels in a dose-dependent manner”. Further, the “serum ALT levels” value in data set [1] (Example 9, FIG. 8, 100 and 50 mg/kg intragastric twice daily) is given as “increased serum ALT levels in a dose-dependent manner”. The “serum AST levels” value in data set [1] (setting [4]) is reported as “increased serum AST levels in a dose-dependent manner”.
Turning to `C[C@H](CC(=O)O)[C@H]1CC[C@H]2[C@@H]3[C@@H](O)C[C@@H]4C[C@H](O)CC[C@]4(C)[C@H]3CC[C@]12C` [Compound N, 24-Norursodeoxycholic acid], the cell viability result in the data set with HepG2 cells (setting [3]) is recorded as “trend toward improved cell viability, but the trend was not significant”; in the data set on HepG2 cells (Example 5, FIG. 2), “trend toward improved cell viability, but the trend was not significant”.
As for `COc1cc2cc3[n+](cc2cc1OC)CCc1cc2c(cc1-3)OCO2` [Compound Y], the “proliferation of CD8-positive T cells” value in the data set with CD8-positive T cells was “significantly inhibited”. Besides, in the data set with HepG2 cells (setting [3]), the cell viability result was “highly significant increase in cell viability”. Further, the “cell viability (percentage relative to blank control)” value in the data set on HepG2 cells (Example 5, FIG. 2, compound Y 50 μM, Y+N 50 μM+50 μM (1:1), YN salt 50 μM for 24 h) is 72%. Moreover, in the data set on CD4-positive T cells, the “proliferation of CD4-positive T cells” value is recorded as “significantly inhibited”. Besides, the “serum alkaline phosphatase (ALP) levels” value in data set [1] (Example 9, FIG. 7, 50 mg/kg intragastric twice daily, day -3 to day 2) was “reduced serum ALP levels”; in data set [1] (Example 9, FIG. 7, 100 mg/kg intragastric twice daily, day -3 to day 2), “significantly reduced serum alkaline phosphatase (ALP) levels”. Further, the “serum ALT levels” value was “reduced serum ALT levels” in data set [1] (Example 9, FIG. 8, 50 mg/kg intragastric twice daily) and “significantly reduced serum ALT levels” in data set [1] (Example 9, FIG. 8, 100 mg/kg intragastric twice daily). Also, in data set [1] (setting [4]), the “serum AST levels” value was “reduced serum AST levels in a dose-dependent manner”.
For the molecule `C[C@H](CCC(=O)O)[C@H]1CC[C@H]2[C@@H]3[C@@H](O)C[C@@H]4C[C@H](O)CC[C@]4(C)[C@H]3CC[C@]12C` [U, Ursodeoxycholic acid], in data set [1] (Example 10, FIG. 10, U 100 mg/kg intragastric twice daily), the “serum alkaline phosphatase (ALP) levels” value is on record as “reduced serum alkaline phosphatase (ALP) levels”. In addition, the “serum ALT levels” value in data set [1] (Example 10, FIG. 11, U 100 mg/kg, Y+N 100+50 mg/kg intragastric twice daily) was “significantly increased serum ALT levels”. For the same molecule, the “serum AST levels” value in data set [1] (Example 10, FIG. 12, U 100 mg/kg, Y+N 100+50 mg/kg intragastric twice daily) is given as “significantly increased serum AST levels”. The “bile pigment-positive area of the liver” value in data set [2] is given as “significant reduction in the bile pigment-positive area of the liver”.

Source of the values: patent US20260078118A1, “COMBINED PRODUCT, SALT AND USE THEREOF” (SHANGHAI HENLIUS BIOTECH, INC., priority 2023, published 2026).
